# From patent US7138361B2, “Herbicidal heterocycles” (E. I. du Pont de Nemours and Company, priority 2000, dated 2006)
# Experiments:
# Experiment in all cases: Test C preemergence
# Assay type in all cases: in vivo
# [1] = system: Nightshade
# From the text: (§1) Seeds of plant species selected from bermudagrass (Cynodon dactylon), Surinam grass (Brachiaria decumbens), cocklebur (Xanthium strumarium), corn (Zea mays), crabgrass (Digitaria sanguinalis), woolly cupgrass (Eriochloa villosa), giant foxtail (Setaria faberii), goosegrass (Eleusine indica), johnsongrass (Sorghum halepense), kochia (Kochia scoparia), lambsquarters (Chenopodium album), morningglory (Ipomoea hederacea), yellow nutsedge (Cyperus esculentus), pigweed (Amaranthus retroflexus), common ragweed (Ambrosia elatior), soybean (Glycine max) and velvetleaf (Abutilon theophrasti) were planted and treated preemergence with test chemicals formulated in a non-phytotoxic solvent mixture which included a surfactant.
# (§2) At the same time, plants selected from these crop and weed species and also winter barley (Hordeum vulgare), blackgrass (Alopecurus myosuroides), canary grass (Phalaris minor), chickweed (Stellaria media), downy brome (Bromus tectorum), green foxtail (Setaria viridis), Italian ryegrass (Lolium multiflorum), wheat (Triticum aestivum), wild oat (Avena fatua) and windgrass (Apera spica-venti) were treated with postemergence applications of some of the test chemicals formulated in the same manner. Plants ranged in height from 2 to 18 cm (1- to 4-leaf stage) for postemergence treatments. Plant species in the flooded paddy test consisted of rice (Oryza saliva), smallflower flatsedge (Cyperus difformis), duck salad (Heteranthera limosa) and barnyardgrass (Echinochloa crus-galli) grown to the 2-leaf stage for testing. Treated plants and controls were maintained in a greenhouse for 12 to 14 days, after which time all species were compared to controls and visually evaluated. Plant response ratings, summarized in Table C, are based on a scale of 0 to 100 where 0 is no effect and 100 is complete control. A dash (-) response means no test result.
# [2] = system: Surinam grass (Brachiaria decumbens); settings: for Plant response rating (0 to 100), Surinam grass: visual evaluation after 12 to 14 days
# From the text: as §1, §2
# [3] = system: corn (Zea mays); settings: for Plant response rating (0 to 100), Corn: visual evaluation after 12 to 14 days
# From the text: as §1, §2
# [4] = system: crabgrass (Digitaria sanguinalis); settings: for Plant response rating (0 to 100), Crabgrass: visual evaluation after 12 to 14 days
# From the text: as §1, §2
# [5] = system: giant foxtail (Setaria faberii)
# From the text: as §1, §2
# [6] = system: kochia (Kochia scoparia); settings: for Plant response rating (0 to 100), Kochia: visual evaluation after 12 to 14 days
# From the text: as §1, §2
# [7] = system: lambsquarters (Chenopodium album)
# From the text: as §1, §2
# [8] = system: pigweed (Amaranthus retroflexus); settings: for Plant response rating (0 to 100), Pigweed: visual evaluation after 12 to 14 days
# From the text: as §1, §2
# [9] = system: soybean (Glycine max); settings: for Plant response rating (0 to 100), Soybean: visual evaluation after 12 to 14 days
# From the text: as §1, §2
# [10] = system: woolly cupgrass (Eriochloa villosa); settings: for Plant response rating (0 to 100), Cupgrass, Woolly: visual evaluation after 12 to 14 days
# From the text: as §1, §2
# [11] = system: bermudagrass (Cynodon dactylon); settings: for Plant response rating, Bermudagrass: scale 0 to 100, 0 no effect, 100 complete control; for Plant response rating (0 to 100 where 0 is no effect and 100 is complete control), Bermudagrass: visual evaluation after 12 to 14 days
# From the text: as §1, §2
# [12] = system: cocklebur (Xanthium strumarium); settings: for Plant response rating, Cocklebur: scale 0 to 100, 0 no effect, 100 complete control; for Plant response rating (0 to 100), Cocklebur: visual evaluation after 12 to 14 days
# From the text: as §1, §2
# [13] = system: common ragweed (Ambrosia elatior); settings: preemergence; for Plant response rating (0 to 100), Ragweed, Common: visual evaluation after 12 to 14 days
# From the text: as §1, §2
# [14] = system: goosegrass (Eleusine indica); settings: for Plant response rating, Goosegrass: scale 0 to 100, 0 no effect, 100 complete control; for Plant response rating (0 to 100), Goosegrass: visual evaluation after 12 to 14 days
# From the text: as §1, §2
# [15] = system: johnsongrass (Sorghum halepense); settings: for Plant response rating, Johnsongrass: scale 0 to 100, 0 no effect, 100 complete control; for Plant response rating (0 to 100), Johnsongrass: visual evaluation after 12 to 14 days
# From the text: as §1, §2
# [16] = system: morningglory (Ipomoea hederacea); settings: for Plant response rating, Morningglory: scale 0 to 100, 0 no effect, 100 complete control; for Plant response rating (0 to 100), Morningglory: visual evaluation after 12 to 14 days
# From the text: as §1, §2
# [17] = system: velvetleaf (Abutilon theophrasti); settings: preemergence; for Plant response rating (0 to 100), Velvetleaf: visual evaluation after 12 to 14 days
# From the text: as §1, §2
# [18] = system: yellow nutsedge (Cyperus esculentus); settings: for Plant response rating, Nutsedge: scale 0 to 100, 0 no effect, 100 complete control; for Plant response rating (0 to 100), Nutsedge: visual evaluation after 12 to 14 days
# From the text: as §1, §2
# [19] = system: Sunflower; settings: Rate 125 g/ha, scale 0 to 100, 0 no effect, 100 complete control
# [20] = Rate 62 g/ha, scale 0 to 100, 0 no effect, 100 complete control
# [21] = Rate 125 g/ha, scale 0 to 100, 0 no effect, 100 complete control
# [22] = preemergence, Rate 31 g/ha, scale 0 to 100
# [23] = preemergence, Rate 125 g/ha, scale 0 to 100, 0 no effect, 100 complete control
structure (smiles),measurement,setting,value
COc1cc(N2CCC(n3ccc(C(C)(C)C)n3)C2=O)ccc1C (centres unmarked) [Compound 42],"Plant response rating, Nightshade","[1]; Rate 31 g/ha, scale 0 to 100",0
same,"Plant response rating, Nightshade",[1]; [20],0
same,"Plant response rating, Nightshade",[1]; [21],100
same,"Plant response rating, Surinam grass",[2]; [20],70
same,"Plant response rating, Surinam grass",[2]; [22],0
same,"Plant response rating, Surinam grass",[2]; [23],90
same,"Plant response rating, Corn",[3]; [20],20
same,"Plant response rating, Corn",[3]; [22],0
same,"Plant response rating, Corn",[3]; [23],40
same,"Plant response rating, Crabgrass",[4]; [20],90
same,"Plant response rating, Crabgrass",[4]; [22],40
same,"Plant response rating, Crabgrass",[4]; [23],100
same,"Plant response rating, Foxtail, Giant",[5]; [20],50
same,"Plant response rating, Foxtail, Giant",[5]; [22],30
same,"Plant response rating, Foxtail, Giant",[5]; [23],100
same,"Plant response rating, Kochia",[6]; [20],50
same,"Plant response rating, Kochia",[6]; [22],20
same,"Plant response rating, Kochia",[6]; [23],100
same,"Plant response rating, Lambsquarters",[7]; [20],100
same,"Plant response rating, Lambsquarters",[7]; [22],20
same,"Plant response rating, Lambsquarters",[7]; [23],100
same,"Plant response rating, Pigweed",[8]; [20],60
same,"Plant response rating, Pigweed",[8]; [22],0
same,"Plant response rating, Pigweed",[8]; [23],100
same,"Plant response rating, Soybean",[9]; [20],50
same,"Plant response rating, Soybean",[9]; [22],20
same,"Plant response rating, Soybean",[9]; [23],50
same,"Plant response rating, Cupgrass, Woolly",[10]; [20],20
same,"Plant response rating, Cupgrass, Woolly",[10]; [22],0
same,"Plant response rating, Cupgrass, Woolly",[10]; [23],100
CC1(c2ccn(C3OCN(c4cccc(C(F)(F)F)c4)C3=O)n2)CC1 (centres unmarked) [Compound 62],"Plant response rating, Nightshade",[1]; [20],0
same,"Plant response rating, Nightshade",[1]; [21],0
same,"Plant response rating, Surinam grass",[2]; [20],0
same,"Plant response rating (0 to 100), Surinam grass","[2]; preemergence, Rate 250 g/ha",60
same,"Plant response rating (0 to 100), Surinam grass","[2]; preemergence, Rate 500 g/ha",80
same,"Plant response rating, Surinam grass",[2]; [23],30
same,"Plant response rating, Bermudagrass",[11]; Rate 62 g/ha,40
same,"Plant response rating (0 to 100 where 0 is no effect and 100 is complete control), Bermudagrass","[11]; preemergence, Rate 250 g/ha",100
same,"Plant response rating (0 to 100 where 0 is no effect and 100 is complete control), Bermudagrass","[11]; preemergence, Rate 500 g/ha",100
same,"Plant response rating, Bermudagrass","[11]; preemergence, Rate 125 g/ha",70
same,"Plant response rating, Cocklebur",[12]; Rate 62 g/ha,0
same,"Plant response rating (0 to 100), Cocklebur","[12]; preemergence, Rate 250 g/ha",0
same,"Plant response rating (0 to 100), Cocklebur","[12]; preemergence, Rate 500 g/ha",0
same,"Plant response rating, Cocklebur","[12]; preemergence, Rate 125 g/ha",0
same,"Plant response rating (0 to 100), Ragweed, Common",[13]; Rate 250 g/ha,0
same,"Plant response rating (0 to 100), Ragweed, Common",[13]; Rate 500 g/ha,0
same,"Plant response rating, Ragweed, Common",[13]; [21],0
same,"Plant response rating, Corn",[3]; [20],0
same,"Plant response rating (0 to 100), Corn","[3]; preemergence, Rate 250 g/ha",0
same,"Plant response rating (0 to 100), Corn","[3]; preemergence, Rate 500 g/ha",20
same,"Plant response rating, Corn",[3]; [23],0
same,"Plant response rating, Crabgrass",[4]; [20],0
same,"Plant response rating (0 to 100), Crabgrass","[4]; preemergence, Rate 250 g/ha",100
same,"Plant response rating (0 to 100), Crabgrass","[4]; preemergence, Rate 500 g/ha",100
same,"Plant response rating, Crabgrass",[4]; [23],90
same,"Plant response rating, Foxtail, Giant",[5]; [20],0
same,"Plant response rating (0 to 100), Foxtail, Giant","[5]; preemergence, Rate 500 g/ha, visual evaluation after 12 to 14 days",100
same,"Plant response rating, Foxtail, Giant",[5]; [23],0
same,"Plant response rating, Goosegrass",[14]; Rate 62 g/ha,80
same,"Plant response rating (0 to 100), Goosegrass","[14]; preemergence, Rate 250 g/ha",100
same,"Plant response rating (0 to 100), Goosegrass","[14]; preemergence, Rate 500 g/ha",100
same,"Plant response rating, Goosegrass","[14]; preemergence, Rate 125 g/ha",90
same,"Plant response rating, Johnsongrass",[15]; Rate 62 g/ha,20
same,"Plant response rating (0 to 100), Johnsongrass","[15]; preemergence, Rate 250 g/ha",60
same,"Plant response rating (0 to 100), Johnsongrass","[15]; preemergence, Rate 500 g/ha",100
same,"Plant response rating, Johnsongrass","[15]; preemergence, Rate 125 g/ha",40
same,"Plant response rating, Kochia",[6]; [20],0
same,"Plant response rating (0 to 100), Kochia","[6]; preemergence, Rate 250 g/ha",90
same,"Plant response rating (0 to 100), Kochia","[6]; preemergence, Rate 500 g/ha",90
same,"Plant response rating, Kochia",[6]; [23],60
same,"Plant response rating, Morningglory",[16]; Rate 62 g/ha,0
same,"Plant response rating (0 to 100), Morningglory","[16]; preemergence, Rate 250 g/ha",0
same,"Plant response rating (0 to 100), Morningglory","[16]; preemergence, Rate 500 g/ha",0
same,"Plant response rating, Morningglory","[16]; preemergence, Rate 125 g/ha",0
same,"Plant response rating (0 to 100), Pigweed","[8]; preemergence, Rate 250 g/ha",0
same,"Plant response rating (0 to 100), Pigweed","[8]; preemergence, Rate 500 g/ha",100
same,"Plant response rating, Pigweed",[8]; [23],0
same,"Plant response rating (0 to 100), Soybean","[9]; preemergence, Rate 250 g/ha",0
same,"Plant response rating (0 to 100), Soybean","[9]; preemergence, Rate 500 g/ha",0
same,"Plant response rating, Soybean",[9]; [23],0
same,"Plant response rating (0 to 100), Velvetleaf",[17]; Rate 250 g/ha,0
same,"Plant response rating (0 to 100), Velvetleaf",[17]; Rate 500 g/ha,20
same,"Plant response rating, Velvetleaf",[17]; [21],0
same,"Plant response rating, Cupgrass, Woolly",[10]; [20],30
same,"Plant response rating (0 to 100), Cupgrass, Woolly","[10]; preemergence, Rate 250 g/ha",90
same,"Plant response rating (0 to 100), Cupgrass, Woolly","[10]; preemergence, Rate 500 g/ha",90
same,"Plant response rating, Cupgrass, Woolly",[10]; [23],50
same,"Plant response rating, Nutsedge",[18]; Rate 62 g/ha,0
same,"Plant response rating (0 to 100), Nutsedge","[18]; preemergence, Rate 250 g/ha",20
same,"Plant response rating (0 to 100), Nutsedge","[18]; preemergence, Rate 500 g/ha",70
same,"Plant response rating, Nutsedge","[18]; preemergence, Rate 125 g/ha",0
same,"Plant response rating, Sunflower",[19],0
